# Source: PubChem BioAssay (NCI)
#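 96-well plates; 48 h exposure; 5 concentrations. Endpoints by linear interpolation between flanking doses. Not reached: highest tested concentration assigned. TGI is the concentration that stops growth completely.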
# What was measured:
# Assay in all cases: NCI anticancer screen, dose series, 48 h
# SF-295 CNS = test system: SF-295 CNS
# OVCAR-5 ovarian = test system: OVCAR-5 ovarian
# SK-MEL-2 melanoma = test system: SK-MEL-2 melanoma
# BT-549 breast = test system: BT-549 breast
# MDA-MB-435 = test system: MDA-MB-435
# HT29 colon = test system: HT29 colon
# HOP-92 NSCLC = test system: HOP-92 NSCLC
# K-562 leukemia = test system: K-562 leukemia
# NCI/ADR-RES ovarian = test system: NCI/ADR-RES ovarian
# HCT-116 colon = test system: HCT-116 colon
# SK-MEL-5 melanoma = test system: SK-MEL-5 melanoma
# RXF 393 renal = test system: RXF 393 renal
# CCRF-CEM leukemia = test system: CCRF-CEM leukemia
# PC-3 prostate = test system: PC-3 prostate
# HS 578T breast = test system: HS 578T breast
# HL-60(TB) leukemia = test system: HL-60(TB) leukemia
# MCF7 breast = test system: MCF7 breast
# OVCAR-8 ovarian = test system: OVCAR-8 ovarian
# SNB-75 CNS = test system: SNB-75 CNS
# SNB-19 CNS = test system: SNB-19 CNS
# DU-145 prostate = test system: DU-145 prostate
# SN12C renal = test system: SN12C renal
# KM12 colon = test system: KM12 colon
# NCI-H226 lung = test system: NCI-H226 lung
# EKVX NSCLC = test system: EKVX NSCLC
# COLO 205 colon = test system: COLO 205 colon
# ACHN renal = test system: ACHN renal
# NCI-H23 lung = test system: NCI-H23 lung
# CAKI-1 renal = test system: CAKI-1 renal
# RPMI-8226 leukemia = test system: RPMI-8226 leukemia
# IGROV1 ovarian = test system: IGROV1 ovarian
# U251 CNS = test system: U251 CNS
# T-47D breast = test system: T-47D breast
# HCT-15 colon = test system: HCT-15 colon
# SW-620 colon = test system: SW-620 colon
# UACC-62 melanoma = test system: UACC-62 melanoma
# SK-OV-3 ovarian = test system: SK-OV-3 ovarian
# MALME-3M melanoma = test system: MALME-3M melanoma
# M14 melanoma = test system: M14 melanoma
# MDA-N = test system: MDA-N
# SF-539 CNS = test system: SF-539 CNS
# SF-268 CNS = test system: SF-268 CNS
# 786-0 renal = test system: 786-0 renal
# NCI-H460 lung = test system: NCI-H460 lung
# TK-10 renal = test system: TK-10 renal
# UO-31 renal = test system: UO-31 renal
# UACC-257 melanoma = test system: UACC-257 melanoma
# A549 NSCLC = test system: A549 NSCLC
# SK-MEL-28 melanoma = test system: SK-MEL-28 melanoma
# SR leukemia = test system: SR leukemia
# HOP-62 NSCLC = test system: HOP-62 NSCLC
# MDA-MB-231 breast = test system: MDA-MB-231 breast
# A498 renal = test system: A498 renal
# MOLT-4 leukemia = test system: MOLT-4 leukemia
# LOX IMVI melanoma = test system: LOX IMVI melanoma
# HCC-2998 colon = test system: HCC-2998 colon
# NCI-H522 lung = test system: NCI-H522 lung
# OVCAR-4 ovarian = test system: OVCAR-4 ovarian
# OVCAR-3 ovarian = test system: OVCAR-3 ovarian
compound,measurement,setting,value
CN1B(c2ccccc2)N(C)C(=O)N(C)C1=O,TGI,SF-295 CNS,> 100 µM
same,TGI,OVCAR-5 ovarian,> 100 µM
same,TGI,SK-MEL-2 melanoma,> 100 µM
same,TGI,BT-549 breast,> 100 µM
same,TGI,MDA-MB-435,> 100 µM
same,TGI,HT29 colon,> 100 µM
same,TGI,HOP-92 NSCLC,> 100 µM
same,TGI,K-562 leukemia,> 100 µM
same,TGI,NCI/ADR-RES ovarian,> 100 µM
same,TGI,HCT-116 colon,> 100 µM
same,TGI,SK-MEL-5 melanoma,> 100 µM
same,TGI,RXF 393 renal,> 100 µM
same,TGI,CCRF-CEM leukemia,> 100 µM
same,TGI,PC-3 prostate,> 100 µM
same,TGI,HS 578T breast,> 100 µM
same,TGI,HL-60(TB) leukemia,> 100 µM
same,TGI,MCF7 breast,> 100 µM
same,TGI,OVCAR-8 ovarian,> 100 µM
same,TGI,SNB-75 CNS,> 100 µM
same,TGI,SNB-19 CNS,> 100 µM
same,TGI,DU-145 prostate,> 100 µM
same,TGI,SN12C renal,> 100 µM
same,TGI,KM12 colon,> 100 µM
same,TGI,NCI-H226 lung,> 100 µM
same,TGI,EKVX NSCLC,> 100 µM
same,TGI,COLO 205 colon,> 100 µM
same,TGI,ACHN renal,> 100 µM
same,TGI,NCI-H23 lung,> 100 µM
same,TGI,CAKI-1 renal,> 100 µM
same,TGI,RPMI-8226 leukemia,> 100 µM
same,TGI,IGROV1 ovarian,> 100 µM
same,TGI,U251 CNS,> 100 µM
same,TGI,T-47D breast,> 100 µM
same,TGI,HCT-15 colon,> 100 µM
same,TGI,SW-620 colon,> 100 µM
same,TGI,UACC-62 melanoma,> 100 µM
same,TGI,SK-OV-3 ovarian,> 100 µM
same,TGI,MALME-3M melanoma,> 100 µM
same,TGI,M14 melanoma,> 100 µM
same,TGI,MDA-N,> 100 µM
same,TGI,SF-539 CNS,> 100 µM
same,TGI,SF-268 CNS,> 100 µM
same,TGI,786-0 renal,> 100 µM
same,TGI,NCI-H460 lung,> 100 µM
same,TGI,TK-10 renal,> 100 µM
same,TGI,UO-31 renal,> 100 µM
same,TGI,UACC-257 melanoma,> 100 µM
same,TGI,A549 NSCLC,> 100 µM
C[N+](C)([O-])CCCNc1ccnc2cccc([N+](=O)[O-])c12,TGI,SF-295 CNS,> 100 µM
same,TGI,OVCAR-5 ovarian,> 100 µM
same,TGI,SK-MEL-28 melanoma,> 100 µM
same,TGI,SR leukemia,> 100 µM
same,TGI,HOP-62 NSCLC,> 100 µM
same,TGI,SK-MEL-2 melanoma,45.8 µM
same,TGI,BT-549 breast,> 100 µM
same,TGI,MDA-MB-435,> 100 µM
same,TGI,HT29 colon,> 100 µM
same,TGI,K-562 leukemia,> 100 µM
same,TGI,MDA-MB-231 breast,> 100 µM
same,TGI,HCT-116 colon,> 100 µM
same,TGI,SK-MEL-5 melanoma,33.4 µM
same,TGI,RXF 393 renal,79.1 µM
same,TGI,A498 renal,> 100 µM
same,TGI,CCRF-CEM leukemia,> 100 µM
same,TGI,PC-3 prostate,> 100 µM
same,TGI,HS 578T breast,77.6 µM
same,TGI,HL-60(TB) leukemia,54.1 µM
same,TGI,MCF7 breast,> 100 µM
same,TGI,OVCAR-8 ovarian,> 100 µM
same,TGI,SNB-75 CNS,> 100 µM
same,TGI,MOLT-4 leukemia,67.6 µM
same,TGI,LOX IMVI melanoma,> 100 µM
same,TGI,SNB-19 CNS,> 100 µM
same,TGI,HCC-2998 colon,> 100 µM
same,TGI,DU-145 prostate,44.1 µM
same,TGI,SN12C renal,> 100 µM
same,TGI,KM12 colon,> 100 µM
same,TGI,NCI-H226 lung,> 100 µM
same,TGI,EKVX NSCLC,> 100 µM
same,TGI,COLO 205 colon,46.4 µM
same,TGI,ACHN renal,> 100 µM
same,TGI,NCI-H23 lung,> 100 µM
same,TGI,NCI-H522 lung,28 µM
same,TGI,CAKI-1 renal,> 100 µM
same,TGI,RPMI-8226 leukemia,57.6 µM
same,TGI,IGROV1 ovarian,> 100 µM
same,TGI,U251 CNS,> 100 µM
same,TGI,T-47D breast,> 100 µM
same,TGI,OVCAR-4 ovarian,55.3 µM
same,TGI,HCT-15 colon,61.6 µM
same,TGI,SW-620 colon,> 100 µM
same,TGI,UACC-62 melanoma,> 100 µM
same,TGI,SK-OV-3 ovarian,> 100 µM
same,TGI,MALME-3M melanoma,87.6 µM
same,TGI,M14 melanoma,> 100 µM
same,TGI,MDA-N,> 100 µM
same,TGI,OVCAR-3 ovarian,44.9 µM
same,TGI,SF-539 CNS,53.1 µM
same,TGI,SF-268 CNS,97.5 µM
same,TGI,786-0 renal,> 100 µM
same,TGI,NCI-H460 lung,31.3 µM
same,TGI,TK-10 renal,> 100 µM
same,TGI,UO-31 renal,> 100 µM
same,TGI,UACC-257 melanoma,> 100 µM
same,TGI,A549 NSCLC,> 100 µM
